Experimental data published in publication PMC3478282, “Probing the Putative Active Site of YjdL: An Unusual Proton-Coupled Oligopeptide Transporter from E. coli” (PLoS ONE, 2012).
Residues, ends and D or L forms follow the SMILES beside them.

Experiments:
Format in all cases: cell-based, E. coli
YdgR Tyr38Phe = target: T1, YdgR Tyr38Phe (Escherichia coli, UniProt P77304, Y38F); assay: β-Ala-Lys(AMCA) uptake and inhibition assay, YdgR Tyr38Phe
T1 construct: host or cells: E. coli BL21(DE3)pLysS
T1 sequence (P77304 whole entry Y38F): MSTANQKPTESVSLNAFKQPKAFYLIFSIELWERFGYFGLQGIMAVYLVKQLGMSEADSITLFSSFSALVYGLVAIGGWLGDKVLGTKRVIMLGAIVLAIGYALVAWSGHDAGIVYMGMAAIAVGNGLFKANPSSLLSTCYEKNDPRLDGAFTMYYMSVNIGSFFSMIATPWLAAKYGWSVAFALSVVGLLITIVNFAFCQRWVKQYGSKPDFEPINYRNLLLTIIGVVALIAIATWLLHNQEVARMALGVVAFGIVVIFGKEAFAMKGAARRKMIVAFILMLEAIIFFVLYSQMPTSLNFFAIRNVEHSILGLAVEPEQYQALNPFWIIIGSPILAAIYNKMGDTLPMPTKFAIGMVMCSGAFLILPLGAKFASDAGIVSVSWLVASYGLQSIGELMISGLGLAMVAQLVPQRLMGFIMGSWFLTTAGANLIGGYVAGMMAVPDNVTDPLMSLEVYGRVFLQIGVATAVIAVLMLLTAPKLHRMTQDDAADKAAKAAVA
Method: (§1) Plasmids were transformed into E. coli BL21(DE3)pLysS cells by heat shock and transformants were selected on agar plates containing 100 µg/mL ampicillin and 34 µg/mL chloramphenicol. Single transformants were inoculated into 2 mL LB-media with antibiotics as above and grown overnight. The cultures were diluted 1∶50 in 5 mL LB-media with antibiotics as above, and at an OD600 of 0.5–0.8 protein expression was induced by the addition of 1 mM isopropyl β-D-1-thiogalactopyranoside (IPTG). The cells were harvested after three hours of induction by centrifugation and resuspended in uptake buffer (50 mM MES pH 6.5, 140 mM NaCl, 5.4 mM KCl, 1.8 mM CaCl2, 0.8 mM MgSO4, and 5 mM glucose).
(§2) Uptake assays were performed as previously described, [20]. In a final assay volume of 100 µL; 0.2 mM β-Ala-Lys-N-7-amino-4-methylcoumarin-3-acetic acid (β-Ala-Lys(AMCA), Biotrend) (10 µL) and various concentrations of ligands (purchased from Bachem or Sigma-Aldrich) or uptake buffer (50 µL) were incubated with bacterial cell suspension (OD600 = 10, 40 µL) at 37°C. […] Finally the cell pellet was resuspended in 100 µL uptake buffer, and the uptake was quantified by fluorescence measurements (excitation at 340 nm and emission at 460 nm) on a Safire 2 fluorimeter. Non-specific uptake was measured as described above on IPTG-induced E. coli BL21(DE3)pLysS cells harboring the empty pTTQ18 vector. […]

YjdL Tyr113Asn = assay: β-Ala-Lys(AMCA) uptake assay, YjdL Tyr113Asn; conditions: 0.2 mM, 5 min, pH 6.5 (Figure 3)
Method: as §1, §2

YdgR Tyr292Ala = target: T2, YdgR Tyr292Ala (Escherichia coli, UniProt P77304, Y292A); assay: β-Ala-Lys(AMCA) uptake and inhibition assay, YdgR Tyr292Ala
T2 construct: host or cells: E. coli BL21(DE3)pLysS
T2 sequence (P77304 whole entry Y292A): as the sequence (P77304 whole entry Y38F) above, with F38Y, Y292A counted along it
Method: as §1, §2

YjdL Lys117Arg = target: T3, YjdL Lys117Arg (Escherichia coli, UniProt P39276, K117R); assay: β-Ala-Lys(AMCA) uptake assay, YjdL Lys117Arg; conditions: 0.2 mM, 5 min, pH 6.5 (Figure 3)
T3 construct: host or cells: E. coli BL21(DE3)pLysS
T3 sequence (P39276 whole entry K117R): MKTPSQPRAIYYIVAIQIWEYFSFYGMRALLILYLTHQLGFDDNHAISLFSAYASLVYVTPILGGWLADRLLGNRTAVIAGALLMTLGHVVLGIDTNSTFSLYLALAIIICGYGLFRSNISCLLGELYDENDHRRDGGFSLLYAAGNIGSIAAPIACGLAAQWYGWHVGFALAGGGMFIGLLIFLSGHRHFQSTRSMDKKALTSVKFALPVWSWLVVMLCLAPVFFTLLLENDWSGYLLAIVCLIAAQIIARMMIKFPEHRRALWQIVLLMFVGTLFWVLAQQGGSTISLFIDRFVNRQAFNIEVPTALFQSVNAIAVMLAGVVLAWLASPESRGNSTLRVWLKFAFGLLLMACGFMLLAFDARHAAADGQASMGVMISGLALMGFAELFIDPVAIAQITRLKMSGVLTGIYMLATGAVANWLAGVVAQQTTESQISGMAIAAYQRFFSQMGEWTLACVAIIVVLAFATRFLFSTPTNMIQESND
Method: as §1, §2

YjdL Asp392Glu = target: T4, YjdL Asp392Glu (Escherichia coli, UniProt P39276, D392E); assay: β-Ala-Lys(AMCA) uptake assay, YjdL Asp392Glu; conditions: standard conditions: 0.2 mM, 5 min, pH 6.5 (Figure 3)
T4 construct: host or cells: E. coli BL21(DE3)pLysS
T4 sequence (P39276 whole entry D392E): as the sequence (P39276 whole entry K117R) above, with R117K, D392E counted along it
Method: as §1, §2

YjdL Gly284Met = target: T5, YjdL Gly284Met (Escherichia coli, UniProt P39276, G284M); assay: β-Ala-Lys(AMCA) uptake assay, YjdL Gly284Met; conditions: 0.2 mM, 5 min, pH 6.5 (Figure 3)
T5 construct: host or cells: E. coli BL21(DE3)pLysS
T5 sequence (P39276 whole entry G284M): as the sequence (P39276 whole entry K117R) above, with R117K, G284M counted along it
Method: as §1, §2

YjdL Tyr25Leu = target: T6, YjdL Tyr25Leu (Escherichia coli, UniProt P39276, Y25L); assay: β-Ala-Lys(AMCA) uptake assay, YjdL Tyr25Leu; conditions: 0.2 mM, 5 min, pH 6.5 (Figure 3)
T6 construct: expressed in transfected cells; host or cells: E. coli BL21(DE3)pLysS, pTTQ18-yjdL mutant (QuikChange)
T6 sequence (P39276 whole entry Y25L): as the sequence (P39276 whole entry K117R) above, with Y25L, R117K counted along it
Method: as §1, §2

YjdL Tyr21Arg = target: T7, YjdL Tyr21Arg (Escherichia coli, UniProt P39276, Y21R); assay: β-Ala-Lys(AMCA) uptake assay, YjdL Tyr21Arg; conditions: 0.2 mM, 5 min, pH 6.5 (Figure 3)
T7 construct: host or cells: E. coli BL21(DE3)pLysS
T7 sequence (P39276 whole entry Y21R): as the sequence (P39276 whole entry K117R) above, with Y21R, R117K counted along it
Method: as §1, §2

YjdL Lys117Gln = target: T8, YjdL Lys117Gln (Escherichia coli, UniProt P39276, K117Q); assay: β-Ala-Lys(AMCA) uptake assay, YjdL Lys117Gln; conditions: 0.2 mM, 5 min, pH 6.5 (Figure 3)
T8 construct: host or cells: E. coli BL21(DE3)pLysS
T8 sequence (P39276 whole entry K117Q): as the sequence (P39276 whole entry K117R) above, with R117Q counted along it
Method: as §1, §2

YdgR Tyr292Phe = target: T9, YdgR Tyr292Phe (Escherichia coli, UniProt P77304, Y292F); assay: β-Ala-Lys(AMCA) uptake inhibition assay, YdgR Tyr292Phe; conditions: 0.2 mM β-Ala-Lys(AMCA), 5 min incubation, pH 6.5; ±SEM, n≥3
T9 construct: host or cells: E. coli BL21(DE3)pLysS
T9 sequence (P77304 whole entry Y292F): as the sequence (P77304 whole entry Y38F) above, with F38Y, Y292F counted along it
Method: as §1, §2

WT-YdgR = target: T10, WT-YdgR (Escherichia coli, UniProt P77304); assay: cell-based; conditions: IC50 (inhibition of β-Ala-Lys(AMCA) uptake)
T10 construct: expressed in transfected cells; host or cells: E. coli BL21(DE3)pLysS, pTTQ18-ydgR, IPTG-induced
T10 sequence (P77304 1-500): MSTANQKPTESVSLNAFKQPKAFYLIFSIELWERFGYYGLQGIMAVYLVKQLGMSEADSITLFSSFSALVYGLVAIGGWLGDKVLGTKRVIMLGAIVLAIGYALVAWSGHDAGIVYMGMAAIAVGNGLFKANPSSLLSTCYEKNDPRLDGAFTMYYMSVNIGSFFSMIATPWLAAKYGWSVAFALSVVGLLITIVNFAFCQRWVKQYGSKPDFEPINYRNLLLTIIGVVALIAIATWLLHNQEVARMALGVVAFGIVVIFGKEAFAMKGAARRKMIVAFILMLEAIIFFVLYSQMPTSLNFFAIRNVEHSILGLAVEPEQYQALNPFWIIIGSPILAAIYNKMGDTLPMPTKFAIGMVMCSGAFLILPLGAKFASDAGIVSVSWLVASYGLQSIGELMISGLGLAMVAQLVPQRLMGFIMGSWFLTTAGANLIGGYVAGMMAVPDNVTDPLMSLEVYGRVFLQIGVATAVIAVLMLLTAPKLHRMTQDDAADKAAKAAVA
Method: as §1, with “The cells were harvested after three hours of induction by centrifugation and resuspended in uptake buffer (50 mM MES pH 6.5, 140 mM NaCl, 5.4 mM KCl, 1.8 mM CaCl2, 0.8 mM MgSO4, and 5 mM glucose).” left out
Uptake assays were performed as previously described, [20]. In a final assay volume of 100 µL; 0.2 mM β-Ala-Lys-N-7-amino-4-methylcoumarin-3-acetic acid (β-Ala-Lys(AMCA), Biotrend) (10 µL) and various concentrations of ligands (purchased from Bachem or Sigma-Aldrich) or uptake buffer (50 µL) were incubated with bacterial cell suspension (OD600 = 10, 40 µL) at 37°C. After 5 min, the uptake was stopped by addition of 500 µL ice-cold uptake buffer followed by immediate centrifugation and washing twice in ice-cold uptake buffer. Finally the cell pellet was resuspended in 100 µL uptake buffer, and the uptake was quantified by fluorescence measurements (excitation at 340 nm and emission at 460 nm) on a Safire 2 fluorimeter. Non-specific uptake was measured as described above on IPTG-induced E. coli BL21(DE3)pLysS cells harboring the empty pTTQ18 vector. All uptake assay experiments were reproduced at least three times independently and data analyses were performed using GraphPad Prism ver. 5.

[1] = 0.2 mM, 5 min, pH 6.5 (Figure 4)

Row | Compound | β-Ala-Lys(AMCA) uptake level, YdgR Tyr38Phe (YdgR Tyr38Phe; [1]) [%] | increase of β-Ala-Lys(AMCA) uptake, YjdL Tyr113Asn (YjdL Tyr113Asn) [fold] | increase of β-Ala-Lys(AMCA) uptake, YdgR Tyr292Ala (YdgR Tyr292Ala; [1]) [fold] | β-Ala-Lys(AMCA) uptake level, YjdL Lys117Arg (YjdL Lys117Arg) [%] | β-Ala-Lys(AMCA) uptake level, YjdL Asp392Glu (YjdL Asp392Glu) [%] | β-Ala-Lys(AMCA) uptake level, YjdL Gly284Met (YjdL Gly284Met) [%] | β-Ala-Lys(AMCA) uptake level, YjdL Tyr25Leu (YjdL Tyr25Leu) [%] | β-Ala-Lys(AMCA) uptake level, YjdL Tyr21Arg (YjdL Tyr21Arg) [%] | β-Ala-Lys(AMCA) uptake level, YjdL Lys117Gln (YjdL Lys117Gln) [%] | IC50 (YdgR Tyr38Phe; 0.5 mM β-Ala-Lys(AMCA), 15 min incubation, pH 6.5, ±SEM, n≥3, read-out: IC50 (inhibition of β-Ala-Lys(AMCA) uptake), YdgR Tyr38Phe b) [µM] | IC50 (YdgR Tyr292Phe) [µM] | IC50 (YdgR Tyr292Ala; 0.2 mM β-Ala-Lys(AMCA), 5 min incubation, pH 6.5, ±SEM, n≥3) [µM] | IC50 (WT-YdgR; WT-YdgR a) [µM] | IC50 (WT-YdgR; WT-YdgR b) [µM]
1 | β-Ala-Lys-N-7-amino-4-methylcoumarin-3-acetic acid [β-Ala-Lys(AMCA)] | 10 | ~2 | ~4 | 17 | 26 | 20 | 14 | 11 | 9 |  |  |  |  | 
2 | C[C@H](N)C(=O)N[C@@H](C)C(=O)O [Ala-Ala] (H-Ala-Ala-OH) |  |  |  |  |  |  |  |  |  | 920 ± 60 | 150 ± 30 | 590 ± 50 | 390 ± 40 | 1040 ± 60
